# Test results reported in patent US9232796B2, “Herbicidal compositions comprising 4-amino-3-chloro-5-fluoro-6-(4-chloro-2-fluoro-3-methoxyphenyl) pyridine-2-carboxylic acid or a derivative thereof and acetyl-CoA carboxylase (ACCase) inhibitors” (DOW AGROSCIENCES LLC, priority 2012, dated 2016).
# Where “and” joins values, the source holds several entries; their conditions need not be identical. Identical values can stand only once.
# What was measured:
# [1] = system: ECHCG; assay: Example V (second) postemergence foliar-applied ternary mixtures, greenhouse, direct seeded rice weeds; type: in vivo, Echinochloa crus-galli (L.) Beauv.
# Summary of the method: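 Compound A (SC, acid equivalent), an ACCase inhibitor and a third herbicide were sprayed alone and as ternary mixtures postemergence at 187 L/ha with 1.25% v/v crop oil concentrate on greenhouse plants at the 1st–4th true leaf stage (29/26 °C day/night, ~14 h photoperiod). Injury was scored visually at ~3 weeks (0–100%) against untreated plants, and Colby's equation gave the expected mixture effects.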
# [2] = system: SCPMA; assay: Example VI in-water applied ternary mixtures, greenhouse, transplanted paddy rice weeds; type: in vivo
# [3] = system: IPOHE; assay: Example V (second) postemergence foliar-applied ternary mixtures, greenhouse, direct seeded rice weeds; type: in vivo, Ipomoea hederacea Jacq.
# Source text: All stock solutions and applications solutions were visually inspected for compound compatibility prior to application. Spray solutions were applied to the plant material with an overhead Mandel track sprayer equipped with a 8002E nozzles calibrated to deliver 187 L/ha over an application area of 0.503 m^2 at a spray height of 18 inches (46 cm) above average plant canopy height. Control plants were sprayed in the same manner with the solvent blank.
# The treated plants and control plants were placed in a greenhouse as described above and watered by sub-irrigation to prevent wash-off of the test compounds. After approximately 3 weeks, the condition of the test plants as compared with that of the untreated plants was determined visually and scored on a scale of 0 to 100 percent where 0 corresponds to no injury or growth inhibition and 100 corresponds to complete kill.
# (§1) Colby's equation was used to determine the herbicidal effects expected from the mixtures (Colby, S. R. 1967. Calculation of the synergistic and antagonistic response of herbicide combinations. Weeds 15:20-22.).
# The following equation was used to calculate the expected activity of mixtures containing three active ingredients, A, B, and C: Expected=A+B+C−((A×B+A×C+B×C)/100)+(A×B×C/10000)
# [4] = system: KCHSC; assay: Example IV postemergence foliar-applied, greenhouse, cereal crops weeds; type: in vivo, Kochia scoparia (L.) Schrad.
# Description: Seeds of the desired test plant species were planted in Sun Gro MetroMix® 306 planting mixture, which typically has a pH of 6.0 to 6.8 and an organic matter content of about 30 percent, in plastic pots with a surface area of 103.2 square centimeters (cm^2). […] The plants were grown for 7-36 days in a greenhouse with an approximate 14 hour photoperiod which was maintained at about 18° C. during the day and about 17° C. during the night. Nutrients and water were added on a regular basis and supplemental lighting was provided with overhead metal halide 1000-Watt lamps as necessary. The plants were employed for testing when they reached the second or third true leaf stage.
# Treatments consisted of the benzyl ester of 4-amino-3-chloro-5-fluoro-6-(4-chloro-2-fluoro-3-methoxy-phenyl)pyridine-2-carboxylic acid (Compound A), formulated as an SC, a second cereal herbicide alone and then both in combination.
# Other herbicidal components were applied on an active ingredient basis and included acetyl-CoA carboxylase (ACCase)-inhibiting herbicides clodinafop-propargyl, fenoxaprop-P-ethyl, pinoxaden and tralkoxydim.
# Measured aliquots of benzyl ester of 4-amino-3-chloro-5-fluoro-6-(4-chloro-2-fluoro-3-methoxy-phenyl)pyridine-2-carboxylic acid (Compound A) were placed in 25 milliliter (mL) glass vials and diluted in a volume of 1.25% (v/v) Agri-Dex® crop oil concentrate to obtain stock solutions. Compound requirements are based upon a 12 mL application volume at a rate of 187 liters per hectare (L/ha). […] Formulated compounds were applied to the plant material with an overhead Mandel track sprayer equipped with an 8002E nozzle calibrated to deliver 187 L/ha over an application area of 0.503 square meters (m^2) at a spray height of 18 inches (46 cm) above average plant canopy. Control plants were sprayed in the same manner with the solvent blank.
# The treated plants and control plants were placed in a greenhouse as described above and watered by sub-irrigation to prevent wash-off of the test compounds. After 20-22 days, the condition of the test plants as compared with that of the control plants was determined visually and scored on a scale of 0 to 100 percent where 0 corresponds to no injury and 100 corresponds to complete kill.
# as §1
# The following equation was used to calculate the expected activity of mixtures containing two active ingredients, A and B: Expected=A+B−(A×B/100)
Compound,Visual Weed Control (%) - 21 DAA ECHCG Obs ([1]; 17.5 gai/ha) [%],Visual Weed Control (%) - 22 DAA ECHCG Obs ([1]; 17.5 gai/ha) [%],Visual Weed Control (%) - 21 DAA ECHCG Obs ([1]; 35 gai/ha) [%],Visual Weed Control (%) - 22 DAA ECHCG Obs ([1]; 35 gai/ha) [%],"Visual Weed Control (%) - 21 DAA SCPMA Obs ([2]; Table 68, cyhalofop-butyl 22.5 gai/ha) [%]","Visual Weed Control (%) - 21 DAA SCPMA Obs ([2]; Table 68, cyhalofop-butyl 45 gai/ha) [%]",Visual Weed Control (%) - 21 DAA IPOHE Obs ([3]; Cyhalofop-butyl 35 gai/ha) [%],Visual Weed Control (%) - 21 DAA ECHCG Obs ([1]; 2.19 gae/ha) [%],Visual Weed Control (%) - 21 DAA ECHCG Obs ([1]; 4.38 gae/ha) [%],Visual Weed Control (%) - 21 DAA ECHCG Obs ([1]; 8 gae/ha),Visual Weed Control (%) - 22 DAA ECHCG Obs ([1]; 8 gae/ha) [%],Visual Weed Control (%) - 22 DAA ECHCG Obs ([1]; 16 gae/ha) [%],Visual Weed Control (%) - 21 DAA KCHSC Obs ([4]; Compound A Benzyl Ester 5 gai/ha) [%],Visual Weed Control (%) - 21 DAA KCHSC Obs ([4]; Compound A Benzyl Ester 10 gai/ha) [%],"Visual Weed Control (%) - 21 DAA SCPMA Obs ([2]; Table 68, 4 gae/ha) [%]","Visual Weed Control (%) - 21 DAA SCPMA Obs ([2]; Table 68, 8 gae/ha) [%]","Visual Weed Control (%) - 21 DAA SCPMA Obs ([2]; Table 68, 16 gae/ha) [%]",Visual Weed Control (%) - 21 DAA IPOHE Obs ([3]; 8 gae/ha) [%],Visual Weed Control (%) - 21 DAA IPOHE Obs ([3]; 16 gae/ha) [%]
"CCCCOC(=O)[C@@H](C)Oc1ccc(Oc2ccc(C#N)cc2F)cc1 [Cyhalofop-butyl, butyl(2R)-2-[4-(4-cyano-2-fluorophenoxy)phenoxy]propanoate, reference compound]",33,0,20,12,0,0,0,–,–,–,–,–,–,–,–,–,–,–,–
"COc1c(Cl)ccc(-c2nc(C(=O)OCc3ccccc3)c(Cl)c(N)c2F)c1F [Compound A Benzyl Ester, benzyl ester of 4-amino-3-chloro-5-fluoro-6-(4-chloro-2-fluoro-3-methoxy-phenyl)pyridine-2-carboxylic acid]",–,–,–,–,–,–,–,5,27,38% and 45%,40,58,20,30,0,0,0,15,33
